Data on 24 compounds can be found in patent publication US20210300936A1, “PYRAZOLOTRIAZOLOPYRIMIDINE DERIVATIVES AS A2A RECEPTOR ANTAGONIST” (BEIGENE, LTD., priority 2018, published 2021).

SMILES strings stand for the structures.

human A2A receptor (A2AR), sequence (P29274 whole entry): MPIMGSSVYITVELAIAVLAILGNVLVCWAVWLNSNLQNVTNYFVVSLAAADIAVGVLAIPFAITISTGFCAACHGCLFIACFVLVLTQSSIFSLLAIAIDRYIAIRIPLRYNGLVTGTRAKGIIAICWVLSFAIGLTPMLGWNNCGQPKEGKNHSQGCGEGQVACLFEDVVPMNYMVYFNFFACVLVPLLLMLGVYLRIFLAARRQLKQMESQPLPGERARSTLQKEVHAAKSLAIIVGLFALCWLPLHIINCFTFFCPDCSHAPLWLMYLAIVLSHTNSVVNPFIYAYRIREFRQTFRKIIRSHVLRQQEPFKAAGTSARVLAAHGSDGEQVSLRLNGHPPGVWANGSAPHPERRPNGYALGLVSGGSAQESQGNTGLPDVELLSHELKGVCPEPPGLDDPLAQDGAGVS

In this assay the target is human A2A receptor (A2AR) (Homo sapiens, UniProt P29274). The experiment in a line: Luciferase reporter assay (HEK293-A2AR-luc2p/CRE/Hygro cells, 3 nM CGS21680). Particulars: 3 nM CGS21680, 5 h incubation. The format is cell-based. The method in brief:
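Antagonist (0.1–10000 nM) and 3 nM CGS21680 were co-added for 5 h to stable HEK293-A2AR-luc2p/CRE cells, 18 h after seeding in 1% FBS medium containing adenosine deaminase. Luminescence was normalized to agonist alone (100%), and IC50 came from the dose–inhibition curve.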
In general terms: A reporter such as luciferase makes a cellular process visible.
One may read the IC50 as the point on the concentration scale where inhibition reaches its midpoint. The compound `COCCOc1cc(F)c(N2CCN(C(=O)C(C)(c3ccccc3)n3ncc4c3nc(N)n3nc(-c5ccco5)nc43)CC2)cc1F` (stereo not drawn) [Compound A65, 2-(5-amino-2-(furan-2-yl)-7H-pyrazolo[4,3-e][1,2,4]triazolo[1,5-c]pyrimidin-7-yl)-1-(4-(2,5-difluoro-4-(2-methoxyethoxy)phenyl)piperazin-1-yl)-2-phenylpropan-1-one] yielded an IC50 of 6.4 nM.
The figure for `COCCOc1cc(F)c(N2CCN(C(=O)[C@](C)(c3ccccc3)n3ncc4c3nc(N)n3nc(-c5ccco5)nc43)CC2)cc1F` [Compound A65a, (S)-2-(5-amino-2-(furan-2-yl)-7H-pyrazolo[4,3-e][1,2,4]triazolo[1,5-c]pyrimidin-7-yl)-1-(4-(2,5-difluoro-4-(2-methoxyethoxy)phenyl)piperazin-1-yl)-2-phenylpropan-1-one] is 21.4 nM; for `COCCOc1cc(F)c(N2CCN(C(=O)[C@@](C)(c3ccccc3)n3ncc4c3nc(N)n3nc(-c5ccco5)nc43)CC2)cc1F` [Compound A65b, (R)-2-(5-amino-2-(furan-2-yl)-7H-pyrazolo[4,3-e][1,2,4]triazolo[1,5-c]pyrimidin-7-yl)-1-(4-(2,5-difluoro-4-(2-methoxyethoxy)phenyl)piperazin-1-yl)-2-phenylpropan-1-one] it is 3.3 nM.
The figure for `COCCOc1ccc(N2CCN(C(=O)C(C)(c3ccccc3)n3ncc4c3nc(N)n3nc(-c5ccco5)nc43)CC2)cc1F` (stereo not drawn) [Compound A66, 2-(5-amino-2-(furan-2-yl)-7H-pyrazolo[4,3-e][1,2,4]triazolo[1,5-c]pyrimidin-7-yl)-1-(4-(3-fluoro-4-(2-methoxyethoxy)phenyl)piperazin-1-yl)-2-phenylpropan-1-one] is 6.5 nM; for `COCCOc1ccc(N2CCN(C(=O)[C@](C)(c3ccccc3)n3ncc4c3nc(N)n3nc(-c5ccco5)nc43)CC2)cc1F` [Compound A66a, (S)-2-(5-amino-2-(furan-2-yl)-7H-pyrazolo[4,3-e][1,2,4]triazolo[1,5-c]pyrimidin-7-yl)-1-(4-(3-fluoro-4-(2-methoxyethoxy)phenyl)piperazin-1-yl)-2-phenylpropan-1-one] it is 16.8 nM; for `COCCOc1ccc(N2CCN(C(=O)[C@@](C)(c3ccccc3)n3ncc4c3nc(N)n3nc(-c5ccco5)nc43)CC2)cc1F` [Compound A66b, (R)-2-(5-amino-2-(furan-2-yl)-7H-pyrazolo[4,3-e][1,2,4]triazolo[1,5-c]pyrimidin-7-yl)-1-(4-(3-fluoro-4-(2-methoxyethoxy)phenyl)piperazin-1-yl)-2-phenylpropan-1-one] it is 3.3 nM.
For `COCCOc1ccc(N2CCN(C(=O)C(C)(c3ccccc3)n3ncc4c3nc(N)n3nc(-c5ccco5)nc43)CC2)c(F)c1F` (stereo not drawn) [Compound A67, 2-(5-amino-2-(furan-2-yl)-7H-pyrazolo[4,3-e][1,2,4]triazolo[1,5-c]pyrimidin-7-yl)-1-(4-(2,3-difluoro-4-(2-methoxyethoxy)phenyl)piperazin-1-yl)-2-phenylpropan-1-one], 8.9 nM corresponded to half-maximal inhibition (IC50). This IC50 is about 2.7-fold higher than that of the compound before.
The figure for `CC(C(=O)N1CCN(c2ccc(F)cc2F)CC1)(c1ccccc1)n1ncc2c1nc(N)n1nc(-c3ccco3)nc21` (stereo not drawn) [Compound A68, 2-(5-amino-2-(furan-2-yl)-7H-pyrazolo[4,3-e][1,2,4]triazolo[1,5-c]pyrimidin-7-yl)-1-(4-(2,4-difluorophenyl)piperazin-1-yl)-2-phenylpropan-1-one] is 4.4 nM; for `CC(C(=O)N1CCN(c2ccccc2F)CC1)(c1ccccc1)n1ncc2c1nc(N)n1nc(-c3ccco3)nc21` (stereo not drawn) [Compound A69, 2-(5-amino-2-(furan-2-yl)-7H-pyrazolo[4,3-e][1,2,4]triazolo[1,5-c]pyrimidin-7-yl)-1-(4-(2-fluorophenyl)piperazin-1-yl)-2-phenylpropan-1-one] it is 3.4 nM; for `CC(C(=O)N1CCN(c2ccc(F)cc2)CC1)(c1ccccc1)n1ncc2c1nc(N)n1nc(-c3ccco3)nc21` (stereo not drawn) [Compound A70, 2-(5-amino-2-(furan-2-yl)-7H-pyrazolo[4,3-e][1,2,4]triazolo[1,5-c]pyrimidin-7-yl)-1-(4-(4-fluorophenyl)piperazin-1-yl)-2-phenylpropan-1-one] it is 5 nM.
The figure for `C[C@@](C(=O)N1CCN(c2ccc(F)cc2)CC1)(c1ccccc1)n1ncc2c1nc(N)n1nc(-c3ccco3)nc21` [Compound A70a, (S)-2-(5-amino-2-(furan-2-yl)-7H-pyrazolo[4,3-e][1,2,4]triazolo[1,5-c]pyrimidin-7-yl)-1-(4-(4-fluorophenyl)piperazin-1-yl)-2-phenylpropan-1-one] is 10.1 nM; for `C[C@](C(=O)N1CCN(c2ccc(F)cc2)CC1)(c1ccccc1)n1ncc2c1nc(N)n1nc(-c3ccco3)nc21` [Compound A70b, (R)-2-(5-amino-2-(furan-2-yl)-7H-pyrazolo[4,3-e][1,2,4]triazolo[1,5-c]pyrimidin-7-yl)-1-(4-(4-fluorophenyl)piperazin-1-yl)-2-phenylpropan-1-one] it is 3.4 nM.
Under `CN(C)CCOc1ccc(N2CCN(C(=O)C(C)(c3ccccc3)n3ncc4c3nc(N)n3nc(-c5ccco5)nc43)CC2)cc1` (stereo not drawn) [Compound A71, 2-(5-amino-2-(furan-2-yl)-7H-pyrazolo[4,3-e][1,2,4]triazolo[1,5-c]pyrimidin-7-yl)-1-(4-(4-(2-(dimethylamino)ethoxy)phenyl)piperazin-1-yl)-2-phenylpropan-1-one] stands 7.5 nM; under `COCCOc1ccc(N2CCN(C(=O)C(C)(c3ccccc3)n3ncc4c3nc(N)n3nc(-c5ccco5)nc43)[C@@H](C)C2)cc1` (stereo partly drawn) [Compound A72, 2-(5-amino-2-(furan-2-yl)-7H-pyrazolo[4,3-e][1,2,4]triazolo[1,5-c]pyrimidin-7-yl)-1-((S)-4-(4-(2-methoxyethoxy)phenyl)-2-methylpiperazin-1-yl)-2-phenylpropan-1-one], 103 nM; under `COCCOc1ccc(N2CCN(C(=O)C(C)(c3ccccc3)n3ncc4c3nc(N)n3nc(-c5ccco5)nc43)C[C@H]2C)cc1` (stereo partly drawn) [Compound A73, 2-(5-amino-2-(furan-2-yl)-7H-pyrazolo[4,3-e][1,2,4]triazolo[1,5-c]pyrimidin-7-yl)-1-((R)-4-(4-(2-methoxyethoxy)phenyl)-3-methylpiperazin-1-yl)-2-phenylpropan-1-one], 15.6 nM.
`COCCOc1ccc(N2CCN(C(=O)C(C)(c3ccccc3)n3ncc4c3nc(N)n3nc(-c5ccco5)nc43)C[C@@H]2C)cc1` (stereo partly drawn) [Compound A74, 2-(5-amino-2-(furan-2-yl)-7H-pyrazolo[4,3-e][1,2,4]triazolo[1,5-c]pyrimidin-7-yl)-1-((S)-4-(4-(2-methoxyethoxy)phenyl)-3-methylpiperazin-1-yl)-2-phenylpropan-1-one] returned an IC50 of 5.1 nM.
With `COCCOc1ccc(N2CCN(C(=O)C(C)(c3cccc(C)c3)n3ncc4c3nc(N)n3nc(-c5ccco5)nc43)CC2)cc1` (stereo not drawn) [Compound A75, 2-(5-amino-2-(furan-2-yl)-7H-pyrazolo[4,3-e][1,2,4]triazolo[1,5-c]pyrimidin-7-yl)-1-(4-(4-(2-methoxyethoxy)phenyl)piperazin-1-yl)-2-(m-tolyl)propan-1-one], it took 6.4 nM to reach half-maximal inhibition (IC50).
The figure for `CC(C(=O)N1CCN(c2ccc(OCCCN3CCOCC3)cc2)CC1)(c1ccccc1)n1ncc2c1nc(N)n1nc(-c3ccco3)nc21` (stereo not drawn) [Compound A76, 2-(5-amino-2-(furan-2-yl)-7H-pyrazolo[4,3-e][1,2,4]triazolo[1,5-c]pyrimidin-7-yl)-1-(4-(4-(3-morpholinopropoxy)phenyl)piperazin-1-yl)-2-phenylpropan-1-one] is 7.3 nM.
The figure for `C[C@@](C(=O)N1CCN(c2ccc(OCCCN3CCOCC3)cc2)CC1)(c1ccccc1)n1ncc2c1nc(N)n1nc(-c3ccco3)nc21` [Compound A76a, (S)-2-(5-amino-2-(furan-2-yl)-7H-pyrazolo[4,3-e][1,2,4]triazolo[1,5-c]pyrimidin-7-yl)-1-(4-(4-(3-morpholinopropoxy)phenyl)piperazin-1-yl)-2-phenylpropan-1-one] is 19.1 nM; for `C[C@](C(=O)N1CCN(c2ccc(OCCCN3CCOCC3)cc2)CC1)(c1ccccc1)n1ncc2c1nc(N)n1nc(-c3ccco3)nc21` [Compound A76b, (R)-2-(5-amino-2-(furan-2-yl)-7H-pyrazolo[4,3-e][1,2,4]triazolo[1,5-c]pyrimidin-7-yl)-1-(4-(4-(3-morpholinopropoxy)phenyl)piperazin-1-yl)-2-phenylpropan-1-one] it is 3.9 nM; for `COc1cccc(N2CCN(C(=O)C(C)(c3ccccc3)n3ncc4c3nc(N)n3nc(-c5ccco5)nc43)CC2)c1` (stereo not drawn) [Compound A77, 2-(5-amino-2-(furan-2-yl)-7H-pyrazolo[4,3-e][1,2,4]triazolo[1,5-c]pyrimidin-7-yl)-1-(4-(3-methoxyphenyl)piperazin-1-yl)-2-phenylpropan-1-one] it is 4.2 nM.
For the compound `COc1ccccc1N1CCN(C(=O)C(C)(c2ccccc2)n2ncc3c2nc(N)n2nc(-c4ccco4)nc32)CC1` (stereo not drawn) [Compound A78, 2-(5-amino-2-(furan-2-yl)-7H-pyrazolo[4,3-e][1,2,4]triazolo[1,5-c]pyrimidin-7-yl)-1-(4-(2-methoxyphenyl)piperazin-1-yl)-2-phenylpropan-1-one], the IC50 came out at 6.2 nM. The IC50 values of the last two compounds are within 1.5-fold of each other.
The figure for `CC(C(=O)N1CCN(c2ccc(OCCCN3CCCC3)cc2)CC1)(c1ccccc1)n1ncc2c1nc(N)n1nc(-c3ccco3)nc21` (stereo not drawn) [Compound A79, 2-(5-amino-2-(furan-2-yl)-7H-pyrazolo[4,3-e][1,2,4]triazolo[1,5-c]pyrimidin-7-yl)-2-phenyl-1-(4-(4-(3-(pyrrolidin-1-yl)propoxy)phenyl)piperazin-1-yl)propan-1-one] is 7.1 nM.
The figure for `C[C@@](C(=O)N1CCN(c2ccc(OCCCN3CCCC3)cc2)CC1)(c1ccccc1)n1ncc2c1nc(N)n1nc(-c3ccco3)nc21` [Compound A79a, (S)-2-(5-amino-2-(furan-2-yl)-7H-pyrazolo[4,3-e][1,2,4]triazolo[1,5-c]pyrimidin-7-yl)-2-phenyl-1-(4-(4-(3-(pyrrolidin-1-yl)propoxy)phenyl)piperazin-1-yl)propan-1-one] is 21.4 nM.
